Reference: patent US4213983A, “Treating gastro-intestinal disorders and emesis with n-(heterocyclic substituted) benzamides” (Beecham Group Limited, priority 1976, dated 1980)

Experiments:
dopamine receptor = test: Inhibition of stereotype behaviour induced by apomorphine; assay type: in vivo, rat; conditions: for Inhibition of Stereo-Type Behaviour, active dose: S.C., rat, active doses (mg/kg); for Inhibition of Stereo-Type Behaviour, number of rats: at 50mg S.C.
Method: (§1) 1. Compounds prepared in the Examples were tested for the following pharmacological activities in the rat:
(c) Inhibition of stereotype behaviour induced by apomorphine.
This is indicative of dopamine receptor blockade in the central nervous system.
The method of Ernst A. M. (1967) Pyschopharmocologia (Berl.) 10 pp. 316-323 was followed.

[1] = tested on: emetic response to apomorphine hydrochloride; test: Abolition of the emetic response to apomorphine hydrochloride; assay type: in vivo; conditions: Canis lupus familiaris, sc; S.C.; dog; apomorphine hydrochloride 0.1 mg/kg subcutaneously; active doses (mg/kg); read-out: Anti-Emetic ED 50
Method: 2. Compounds were also tested for abolition of the emetic response to apomorphine hydrochloride (0.1 mg/kg subcutaneously) in the dog

[2] = tested on: apomorphine induced delay in gastric emptying; test: Increase in gastric emptying - reversal of apomorphine induced delay in gastric emptying of a test meal; assay type: in vivo, rat; conditions: S.C.; rats with chronic gastric fistula; Apomorphine HCl 5 mg/kg subcutaneously 15 minutes prior; active doses (mg/kg)
Method: as §1
(b) Increase in gastric emptying-reversal of apomorphine induced delay in gastric emptying of a test meal.
Rats equipped with chronic gastric fistula were used and it was through this that 5 ml of a test meal (5 ml phosphate buffer at pH 9) was administered and recovered. The % recovery of the standard meal after remaining in the stomach for 10 minutes was taken as an index of gastric emptying. Delay in gastric emptying was induced by the administration of Apomorphine HCl (5 mg/kg subcutaneously) and was given 15 minutes prior to the administration of the Compound. The % recoveries of the test meal was determined at 15-25 and 45-55 minutes post dosing with the Compound and compared with vehicle only dosed animals set up simultaneously. Six animals were used for each group.

intragastric pressure = test: Increase in intragastric pressure; assay type: in vivo, rat; conditions: conscious restrained rats with gastric fistula, 40 minutes after administration, active doses (mg/kg)
Method: as §1
(a) Increase in intragastric pressure
Intragastric pressure changes were recorded from previously starved conscious and restrained rats using a saline filled catheter inserted into the lumen of the stomach via a permanent gastric fistula. The catheter was connected to a physiological pressure transducer and pressure changes recorded on a hot wire pen recorder. In each animal a pre-dose period of 40 minutes was allowed to obtain a measure of spontaneous activity. An index of activity was obtained by measuring the average height of pressure waves during 10 minute periods. Values for 4 such periods were obtained during assessment of spontaneous activity and for the 40 minute period after the administration of the Compounds. Student "t" test was applied to the difference in average values obtained for spontaneous and post Compound activity.

Row | Structure (SMILES) | Inhibition of Stereo-Type Behaviour, active dose (dopamine receptor) | ED50 [1] | Increase in Gastric Emptying, active dose [2] | Inhibition of Stereo-Type Behaviour, number of rats (dopamine receptor) | Increase in Intra-Gastric Pressure, active dose (intragastric pressure; P.O.) | Increase in Intra-Gastric Pressure, active dose (intragastric pressure; S.C.)
1 | COc1cc(N)c(Cl)cc1C(=O)NC1CCCN2CCCCC12 (stereo not drawn) [Example 8b, 4-Amino-5-chloro-2-methoxy-N-(1-quinolizidinyl)-benzamide] | 50 mg | < 2 mg/kg | – | – | – | –
2 | COc1cc(N)c(Cl)cc1C(=O)NC1CCN2CCc3ccccc3C2C1 (stereo not drawn) [Example 10, 4-Amino-5-chloro-N-[2-(2H-benzo[a]-quinolizine-1,3,4,6,7,11b-hexahydro)]-2-methoxy-benzamide] | – | – | 50 mg | – | – | –
3 | COc1cc(N)c(Cl)cc1C(=O)NC1CCC2CCCCN2C1 (stereo not drawn) [Example 6, 4-Amino-5-chloro-2-methoxy-N-(3-quinolizidinyl)-benzamide] | 50 mg | 1.4 mg/kg | – | 3 out of 7 rats | – | –
4 | COc1cc(N)c(Cl)cc1C(=O)NC1CCN2CCCCC2C1 (stereo not drawn) [Example 2, 4-Amino-5-chloro-2-methoxy-N-(2-quinolizidinyl)-benzamide] | 15 mg | 0.7 mg/kg | 25 mg | – | 50 mg | 2.5 mg
5 | COc1cc(N)c(Cl)cc1C(=O)NC1CCN2CCCC2C1 (stereo not drawn) [Example 4, 4-Amino-5-chloro-2-methoxy-N-(7-octahydro-indolizinyl)-benzamide] | 50 mg | < 2 mg/kg | 50 mg | 4 out of 7 rats | – | 5 mg
6 | COc1cc(N)c(Cl)cc1C(=O)NC1CC2CCCCN2C1 (stereo not drawn) [Example 14, 4-Amino-5-chloro-2-methoxy-N-(2-octahydroindolizinyl)-benzamide] | 50 mg | < 2 mg/kg | 50 mg | – | – | –
7 | COc1cc(N)c(Cl)cc1C(=O)NC1CCN2C(C)CCCC2C1 (stereo not drawn) [Example 16, 4-Amino-5-chloro-2-methoxy-N-(6-methyl-2-quinolizidinyl)-benzamide] | – | – | – | – | – | 1 mg
8 | COc1cc(N)c(Cl)cc1C(=O)NN1CCN2CCCCC2C1 (stereo not drawn) [Example 12] | – | 2 mg/kg | – | – | – | –
